Test results as given in patent publication US10898481B2 (priority 2018, dated 2021).

Key:
hA2a/CHO = hA2a/CHO (Homo sapiens (Human), UniProt P29274); assay: cAMP inhibition assay in hA2a/CHO cells, 10 μM adenosine; type: cell-based; settings: read-out: cAMP & FLIPR IC50 (nM) hA2a;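 further: compounds added to cells 30 min ahead of adenosine, then a further 30 min at 37 °C with adenosine before cAMP detection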
mA2a/CHO = mA2a/CHO (Mus musculus (Mouse), UniProt Q60613); assay: cAMP inhibition assay in mA2a/CHO cells, 10 μM adenosine; type: cell-based; settings: read-out: cAMP & FLIPR IC50 (nM) mA2a;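 further: compounds preincubated 30 min at 37 °C before the adenosine challenge, then 30 min further stimulation, readout after 60 min detection reagent incubation at room temperature in 384-well plates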
[1] = biological target: hADORA1/CHO (hA1 expressing) cells (Homo sapiens (Human), UniProt P30542); assay: cell-based; settings: FLIPR inhibition, 10 μM adenosine, read-out: cAMP & FLIPR IC50 (nM) hA1
hA3/CHO = hA3/CHO (Homo sapiens (Human), UniProt P0DMS8); assay: cell-based
Method: hA2a/CHO, hA2b/CHO, hA3/CHO and mA2a/CHO (Genscript) were plated at 5×10^3 cells/well into 384-well polystyrene plates at the day of experiment. Compounds were pre-incubated with cells for 30 min at 37° C., 5% CO2. Then 10 μM adenosine was added to the cells and incubated for 30 min at 37° C., 5% CO2. Detection reagent (CISBIO) was added and the plates were incubated for 60 min at room temperature. The signal was captured by Envision.

hA2b/CHO = hA2b/CHO (Homo sapiens (Human), UniProt P29275); assay: cAMP inhibition assay in hA2b/CHO cells, 10 μM adenosine; type: cell-based; settings: read-out: cAMP & FLIPR IC50 (nM) hA2b;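 further: cells exposed to compound 30 min at 37 °C, then stimulated with adenosine a further 30 min, cAMP read after 60 min at room temperature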
hA2a = hA2a (Homo sapiens (Human), UniProt P29274); assay: Radioligand binding to hA2a membrane with [3H]-CGS21680; settings: read-out: Binding Affinity (IC50 nM) hA2a
Excerpt: The empty boxes in the tables below indicate data not collected yet.

Sequence of hA3/CHO (P0DMS8 whole entry): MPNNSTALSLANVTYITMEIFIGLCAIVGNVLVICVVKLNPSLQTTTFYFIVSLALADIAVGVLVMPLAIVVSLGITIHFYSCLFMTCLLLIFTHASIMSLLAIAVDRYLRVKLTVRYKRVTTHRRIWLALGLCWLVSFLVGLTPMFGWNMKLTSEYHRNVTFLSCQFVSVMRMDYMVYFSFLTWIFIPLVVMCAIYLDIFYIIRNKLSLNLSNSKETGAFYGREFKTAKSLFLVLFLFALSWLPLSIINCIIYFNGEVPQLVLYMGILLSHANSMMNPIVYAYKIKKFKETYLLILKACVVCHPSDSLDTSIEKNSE
Sequence of hA2b/CHO (P29275 whole entry): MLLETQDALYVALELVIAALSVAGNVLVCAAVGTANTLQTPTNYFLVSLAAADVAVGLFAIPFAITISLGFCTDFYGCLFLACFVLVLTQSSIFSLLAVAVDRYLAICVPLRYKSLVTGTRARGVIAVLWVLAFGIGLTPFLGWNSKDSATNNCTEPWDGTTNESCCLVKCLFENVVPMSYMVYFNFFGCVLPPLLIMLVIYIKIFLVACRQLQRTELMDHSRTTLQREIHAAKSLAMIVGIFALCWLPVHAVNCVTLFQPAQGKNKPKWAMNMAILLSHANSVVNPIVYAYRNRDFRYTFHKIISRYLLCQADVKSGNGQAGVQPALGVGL
Sequence of hADORA1/CHO (hA1 expressing) cells (P30542 whole entry): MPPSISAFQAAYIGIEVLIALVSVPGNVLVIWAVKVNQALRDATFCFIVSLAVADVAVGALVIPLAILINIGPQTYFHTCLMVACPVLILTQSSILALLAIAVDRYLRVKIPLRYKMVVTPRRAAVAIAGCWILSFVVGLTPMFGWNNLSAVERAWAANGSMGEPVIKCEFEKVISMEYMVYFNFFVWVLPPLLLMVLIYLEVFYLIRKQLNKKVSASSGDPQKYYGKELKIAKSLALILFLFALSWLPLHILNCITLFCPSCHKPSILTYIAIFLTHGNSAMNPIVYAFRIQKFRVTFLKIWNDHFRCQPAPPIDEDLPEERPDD
Sequence of mA2a/CHO (Q60613 whole entry): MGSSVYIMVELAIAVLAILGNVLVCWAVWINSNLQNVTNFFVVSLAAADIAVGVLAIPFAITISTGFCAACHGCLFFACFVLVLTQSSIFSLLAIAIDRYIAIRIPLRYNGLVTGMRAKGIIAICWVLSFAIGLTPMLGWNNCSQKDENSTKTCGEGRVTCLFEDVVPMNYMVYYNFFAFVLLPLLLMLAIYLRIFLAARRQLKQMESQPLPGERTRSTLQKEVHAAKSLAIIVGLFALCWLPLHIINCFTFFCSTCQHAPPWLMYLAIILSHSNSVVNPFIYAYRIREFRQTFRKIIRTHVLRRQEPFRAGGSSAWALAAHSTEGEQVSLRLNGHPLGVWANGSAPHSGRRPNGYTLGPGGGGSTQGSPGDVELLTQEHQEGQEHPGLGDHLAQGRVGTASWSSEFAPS
Sequence of hA2a/CHO (P29274 whole entry): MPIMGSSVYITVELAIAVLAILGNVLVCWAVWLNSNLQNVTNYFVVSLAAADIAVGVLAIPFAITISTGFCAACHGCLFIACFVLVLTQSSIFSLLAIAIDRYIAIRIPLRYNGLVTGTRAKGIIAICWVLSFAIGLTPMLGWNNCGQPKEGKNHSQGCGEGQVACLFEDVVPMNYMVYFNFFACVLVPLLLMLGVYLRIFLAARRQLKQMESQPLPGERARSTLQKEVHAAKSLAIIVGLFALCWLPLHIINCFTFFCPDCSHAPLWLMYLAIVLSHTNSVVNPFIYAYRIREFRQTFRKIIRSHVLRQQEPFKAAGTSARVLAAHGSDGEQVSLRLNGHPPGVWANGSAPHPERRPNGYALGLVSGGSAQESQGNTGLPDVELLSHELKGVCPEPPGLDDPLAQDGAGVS
Sequence of hA2a (P29274 whole entry): as above

Row | Structure (SMILES) | IC50 (hA2a/CHO) | IC50 (mA2a/CHO) | IC50 [1] | IC50 (hA3/CHO) | IC50 (hA2b/CHO) | IC50 (hA2a)
1 | Cc1cc(-c2nc(C(=O)NCc3cccc(N(C)C)n3)c(N)nc2-c2ccc(F)cc2)cc(C)n1 [Example 9, 3-amino-N-[[6-(dimethylamino)pyridin-2-yl]methyl]-6-(2,6-dimethylpyridin-4-yl)-5-(4-fluorophenyl)pyrazine-2-carboxamide] | 5.4 nM | 25 nM | 1000 nM | ≥ 10000 nM | ≥ 10000 nM | 
2 | Cc1cc(-c2nc(C(=O)NCc3c(F)cccc3F)c(N)nc2-c2ncco2)ccn1 [Example 10, 3-amino-N-(2,6-difluorobenzyl)-6-(2-methylpyridin-4-yl)-5-(oxazol-2-yl) pyrazine-2-carboxamide] | 17 nM | 41 nM | 58 nM | ≥ 10000 nM | 17 nM | 
3 | Cn1cc(-c2nc(C(=O)NCc3ncccc3C(F)(F)F)c(N)nc2-c2ncco2)ccc1=O [Example 11, 3-amino-6-(1-methyl-6-oxo-1,6-dihydropyridin-3-yl)-5-(oxazol-2-yl)-N-((3-(trifluoromethyl)pyridin-2-yl)methyl)pyrazine-2-carboxamide] | 89 nM | 87 nM | 4490 nM | ≥ 10000 nM | 1010 nM | 
4 | Cc1cc(-c2nc(C(=O)NCc3cccc(N(C)C)n3)c(N)nc2-c2ccc(F)cc2)ccn1 [Example 12, 3-amino-N-((6-(dimethylamino)pyridin-2-yl)methyl)-5-(4-fluorophenyl)-6-(2-methylpyridin-4-yl)pyrazine-2-carboxamide] | 36 nM | 678 nM | 414 nM | 6940 nM | 9030 nM | 
5 | CN(C)c1cccc(CNC(=O)c2nc(-c3ccc(=O)n(C)c3)c(-c3ccc(F)cc3)nc2N)n1 [Example 13, 3-amino-N-[[6-(dimethylamino)pyridin-2-yl]methyl]-5-(4-fluorophenyl)-6-(1-methyl-6-oxo-1,6-dihydropyridin-3-yl)pyrazine-2-carboxamide] | 6.1 nM | 51 nM | 72 nM | ≥ 10000 nM | 4640 nM | 
6 | Cn1cc(-c2nc(C(=O)NCc3ncccc3F)c(N)nc2-c2ncco2)ccc1=O [Example 14, 3-amino-N-((3-fluoropyridin-2-yl)methyl)-6-(1-methyl-6-oxo-1,6-dihydropyridin-3-yl)-5-(oxazol-2-yl)pyrazine-2-carboxamide] | 98 nM | 213 nM | 10000 nM | ≥ 10000 nM | 768 nM | 3.1 nM
7 | CC(NC(=O)c1nc(-c2ccc(=O)n(C)c2)c(-c2ncco2)nc1N)c1c(F)cccc1F (stereo not drawn) [Example 20, 3-amino-N-(1-(2,6-difluorophenyl)ethyl)-6-(1-methyl-6-oxo-1,6-dihydropyridin-3-yl)-5-(oxazol-2-yl) pyrazine-2-carboxamide] | 41 nM | 170 nM | 6610 nM | ≥ 10000 nM | 3600 nM | 
8 | Cc1scnc1CNC(=O)c1nc(-c2ccc(=O)n(C)c2)c(-c2ncco2)nc1N [Example 22, 3-amino-6-(1-methyl-6-oxo-1,6-dihydropyridin-3-yl)-N-((5-methylthiazol-4-yl)methyl)-5-(oxazol-2-yl)pyrazine-2-carboxamide] | 60 nM | 132 nM | 3380 nM | ≥ 10000 nM | 2550 nM | 3.5 nM
9 | Cn1cc(-c2nc(C(=O)NCc3cccc(N)n3)c(N)nc2-c2ncco2)ccc1=O [Example 24, 3-amino-N-[(6-aminopyridin-2-yl)methyl]-6-(1-methyl-6-oxo-1,6-dihydropyridin-3-yl)-5-(1,3-oxazol-2-yl)pyrazine-2-carboxamide] | 199 nM | 641 nM | 9360 nM | ≥ 10000 nM | 1460 nM | 11 nM
10 | CN(C)c1ccnc(CNC(=O)c2nc(-c3ccc(=O)n(C)c3)c(-c3ncco3)nc2N)n1 [Example 25, 3-amino-N-((4-(dimethylamino)pyrimidin-2-yl)methyl)-6-(1-methyl-6-oxo-1,6-dihydropyridin-3-yl)-5-(oxazol-2-yl)pyrazine-2-carboxamide] | 125 nM | 242 nM | 3300 nM | ≥ 10000 nM | ≥ 10000 nM | 
11 | Cn1cc(-c2nc(C(=O)NCc3cccc(N4CCC4)n3)c(N)nc2-c2ncco2)ccc1=O [Example 26, 3-amino-N-[[6-(azetidin-1-yl)pyridin-2-yl]methyl]-6-(1-methyl-6-oxo-1,6-dihydropyridin-3-yl)-5-(1,3-oxazol-2-yl)pyrazine-2-carboxamide] | 108 nM | 309 nM | 725 nM | ≥ 10000 nM | ≥ 10000 nM | 
12 | CN(C)c1ccc(F)c(CNC(=O)c2nc(-c3ccc(=O)n(C)c3)c(-c3ncco3)nc2N)c1 [Example 27, 3-amino-N-(5-(dimethylamino)-2-fluorobenzyl)-6-(1-methyl-6-oxo-1,6-dihydropyridin-3-yl)-5-(oxazol-2-yl)pyrazine-2-carboxamide] | 60 nM | 177 nM | 1770 nM | ≥ 10000 nM | ≥ 10000 nM | 
13 | Cn1cc(-c2nc(C(=O)NCc3cccc(N4CCCC4)n3)c(N)nc2-c2ncco2)ccc1=O [Example 28, 3-amino-6-(1-methyl-6-oxo-1,6-dihydropyridin-3-yl)-5-(1,3-oxazol-2-yl)-N-[[6-(pyrrolidin-1-yl)pyridin-2-yl]methyl]pyrazine-2-carboxamide] | 129 nM | 160 nM | 4900 nM | ≥ 10000 nM | ≥ 10000 nM | 
14 | Cn1cc(-c2nc(C(=O)NCc3c(F)cccc3F)c(N)nc2-c2ccc(F)cc2)ccc1=O [Example 29, 3-amino-N-[(2,6-difluorophenyl)methyl]-5-(4-fluorophenyl)-6-(1-methyl-6-oxo-1,6-dihydropyridin-3-yl)pyrazine-2-carboxamide] | 6.8 nM | 60 nM | 66 nM | ≥ 10000 nM | 103 nM | 2.3 nM
15 | Cn1cc(-c2nc(C(=O)NCc3ncccc3OC(F)(F)F)c(N)nc2-c2ncco2)ccc1=O [Example 30, 3-amino-6-(1-methyl-6-oxo-1,6-dihydropyridin-3-yl)-5-(1,3-oxazol-2-yl)-N-[[3-(trifluoromethoxy)pyridin-2-yl]methyl]pyrazine-2-carboxamide] | 45 nM | 47 nM | 214 nM | ≥ 10000 nM | 603 nM | 
16 | Nc1nc(-c2ncco2)c(-c2ccc(=O)n(C(F)F)c2)nc1C(=O)NCc1ncccc1F [Example 31, 3-amino-6-[1-(difluoromethyl)-6-oxo-1,6-dihydropyridin-3-yl]-N-[(3-fluoropyridin-2-yl)methyl]-5-(1,3-oxazol-2-yl)pyrazine-2-carboxamide] | 34 nM | 75 nM | 35 nM | ≥ 10000 nM | 164 nM | 
17 | Nc1nc(-c2ncco2)c(-c2ccc3nccn3c2)nc1C(=O)NCc1c(F)cccc1F [Example 32, 3-amino-N-[(2,6-difluorophenyl)methyl]-6-[imidazo[1,2-a]pyridin-6-yl]-5-(1,3-oxazol-2-yl)pyrazine-2-carboxamide] | 0.2 nM | 2 nM | 494 nM | ≥ 10000 nM | 3 nM | 
18 | CN(C)c1cccc(CNC(=O)c2nc(-c3ccc(=O)n(C)c3)c(-c3ncco3)nc2N)c1F [Example 33, 3-amino-N-(3-(dimethylamino)-2-fluorobenzyl)-6-(1-methyl-6-oxo-1,6-dihydropyridin-3-yl)-5-(oxazol-2-yl)pyrazine-2-carboxamide] | 56 nM | 123 nM | 3030 nM | ≥ 10000 nM | ≥ 10000 nM | 
19 | Nc1nc(-c2ncco2)c(-c2ccc3nncn3c2)nc1C(=O)NCc1c(F)cccc1F [Example 34, 6-([1,2,4]triazolo[4,3-a]pyridin-6-yl)-3-amino-N-(2,6-difluorobenzyl)-5-(oxazol-2-yl)pyrazine-2-carboxamide] | 63 nM | 192 nM | 10000 nM | ≥ 10000 nM | 330 nM | 3.7 nM
20 | Cn1cc(-c2nc(C(=O)NCc3c(F)cccc3F)c(N)nc2-n2nccn2)ccc1=O [Example 35, 3-amino-N-(2,6-difluorobenzyl)-6-(1-methyl-6-oxo-1,6-dihydropyridin-3-yl)-5-(2H-1,2,3-triazol-2-yl)pyrazine-2-carboxamide] | 15 nM | 43 nM | 112 nM | ≥ 10000 nM | 203 nM | 3.2 nM
21 | Nc1nc(-c2ncco2)c(-c2ccc(=O)n(CCO)c2)nc1C(=O)NCc1c(F)cccc1F [Example 41, 3-amino-N-(2,6-difluorobenzyl)-6-(1-(2-hydroxyethyl)-6-oxo-1,6-dihydropyridin-3-yl)-5-(oxazol-2-yl)pyrazine-2-carboxamide] | 1.6 nM | 13 nM | 123 nM |  | 38 nM | 3.3 nM
